Source: patent US12662465B2, “EGFR inhibitors” (Blueprint Medicines Corporation, priority 2021, dated 2026)
pIC50: −log10 of the molar value.

How the values were obtained:
EGFR (d746-750) = molecular target: T1, EGFR (d746-750) (Homo sapiens, UniProt P00533, DEL746-750); assay: Biochemical EGFR inhibition assay (Caliper mobility shift), EGFR (d746-750); conditions: 1.0 mM ATP or ATP Km; room temperature (25° C.); read-out: Enz EGFR_Exon19-del746-750 IC50
T1 construct: purchased SignalChem E10-122JG

[1] = molecular target: intracellular phosphorylation of EGFR (Tyr1068) in PC-9 cells (Ex19Del) (Homo sapiens, UniProt P00533, DEL746-750); assay: PC-9 pEGFR AlphaLISA assay; assay type: cell-based; conditions: 4 hours compound incubation, read-out: Ext pEGFR_PC-9 Ex19Del IC50
EGFR L858R = molecular target: T2, EGFR L858R (Homo sapiens, UniProt P00533, L858R); assay: Biochemical EGFR inhibition assay (Caliper mobility shift), EGFR L858R; conditions: 1.0 mM ATP or ATP Km; room temperature (25° C.); read-out: Enz EGFR_L858R IC50
T2 construct: purchased SignalChem E10-122BG
T2 sequence (P00533 25-1210 L858R): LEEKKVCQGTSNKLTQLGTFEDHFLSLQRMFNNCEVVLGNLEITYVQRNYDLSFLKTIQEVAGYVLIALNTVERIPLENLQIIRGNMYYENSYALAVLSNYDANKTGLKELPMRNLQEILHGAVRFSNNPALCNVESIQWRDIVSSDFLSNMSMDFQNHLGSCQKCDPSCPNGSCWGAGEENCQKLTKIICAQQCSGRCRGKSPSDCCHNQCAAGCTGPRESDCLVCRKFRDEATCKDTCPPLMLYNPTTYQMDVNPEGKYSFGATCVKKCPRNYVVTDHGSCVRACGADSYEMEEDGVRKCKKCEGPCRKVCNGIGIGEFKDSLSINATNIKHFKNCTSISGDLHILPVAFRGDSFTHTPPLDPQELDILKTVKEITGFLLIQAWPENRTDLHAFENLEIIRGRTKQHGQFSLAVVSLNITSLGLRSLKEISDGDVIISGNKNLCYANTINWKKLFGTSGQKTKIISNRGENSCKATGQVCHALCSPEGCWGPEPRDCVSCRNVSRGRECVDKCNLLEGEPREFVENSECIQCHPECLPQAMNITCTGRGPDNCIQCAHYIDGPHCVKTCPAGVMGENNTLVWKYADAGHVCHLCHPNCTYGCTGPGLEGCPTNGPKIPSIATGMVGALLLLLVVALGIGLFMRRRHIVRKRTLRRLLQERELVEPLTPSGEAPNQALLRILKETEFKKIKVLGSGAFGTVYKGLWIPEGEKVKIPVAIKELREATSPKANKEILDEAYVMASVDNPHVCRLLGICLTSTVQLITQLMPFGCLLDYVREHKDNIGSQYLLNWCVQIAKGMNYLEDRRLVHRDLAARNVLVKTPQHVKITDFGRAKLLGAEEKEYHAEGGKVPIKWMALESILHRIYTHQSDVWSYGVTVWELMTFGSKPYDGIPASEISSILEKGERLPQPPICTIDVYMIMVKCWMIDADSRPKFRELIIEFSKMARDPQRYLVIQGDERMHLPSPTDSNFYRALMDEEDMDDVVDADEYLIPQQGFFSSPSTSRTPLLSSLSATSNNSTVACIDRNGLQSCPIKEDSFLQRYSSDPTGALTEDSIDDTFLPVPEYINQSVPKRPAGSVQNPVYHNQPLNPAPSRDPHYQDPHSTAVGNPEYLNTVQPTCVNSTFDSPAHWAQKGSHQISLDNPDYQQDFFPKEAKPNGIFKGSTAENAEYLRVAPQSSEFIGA

T1 sequence (P00533 with tags, fused parts or gaps DEL746-750 limits assumed): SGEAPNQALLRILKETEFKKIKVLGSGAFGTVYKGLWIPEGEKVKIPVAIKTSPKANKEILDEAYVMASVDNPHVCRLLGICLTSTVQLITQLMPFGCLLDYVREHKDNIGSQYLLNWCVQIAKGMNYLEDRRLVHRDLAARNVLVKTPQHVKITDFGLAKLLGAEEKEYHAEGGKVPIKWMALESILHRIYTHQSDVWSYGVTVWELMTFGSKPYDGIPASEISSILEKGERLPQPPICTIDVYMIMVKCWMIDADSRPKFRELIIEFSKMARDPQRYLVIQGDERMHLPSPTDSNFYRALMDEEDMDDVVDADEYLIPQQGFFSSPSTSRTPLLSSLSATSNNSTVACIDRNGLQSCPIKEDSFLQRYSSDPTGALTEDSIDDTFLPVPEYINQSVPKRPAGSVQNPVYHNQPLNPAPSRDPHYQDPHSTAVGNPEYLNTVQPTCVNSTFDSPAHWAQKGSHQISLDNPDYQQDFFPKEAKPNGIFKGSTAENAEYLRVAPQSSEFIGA
Sequence of intracellular phosphorylation of EGFR (Tyr1068) in PC-9 cells (Ex19Del) (P00533 with tags, fused parts or gaps DEL746-750): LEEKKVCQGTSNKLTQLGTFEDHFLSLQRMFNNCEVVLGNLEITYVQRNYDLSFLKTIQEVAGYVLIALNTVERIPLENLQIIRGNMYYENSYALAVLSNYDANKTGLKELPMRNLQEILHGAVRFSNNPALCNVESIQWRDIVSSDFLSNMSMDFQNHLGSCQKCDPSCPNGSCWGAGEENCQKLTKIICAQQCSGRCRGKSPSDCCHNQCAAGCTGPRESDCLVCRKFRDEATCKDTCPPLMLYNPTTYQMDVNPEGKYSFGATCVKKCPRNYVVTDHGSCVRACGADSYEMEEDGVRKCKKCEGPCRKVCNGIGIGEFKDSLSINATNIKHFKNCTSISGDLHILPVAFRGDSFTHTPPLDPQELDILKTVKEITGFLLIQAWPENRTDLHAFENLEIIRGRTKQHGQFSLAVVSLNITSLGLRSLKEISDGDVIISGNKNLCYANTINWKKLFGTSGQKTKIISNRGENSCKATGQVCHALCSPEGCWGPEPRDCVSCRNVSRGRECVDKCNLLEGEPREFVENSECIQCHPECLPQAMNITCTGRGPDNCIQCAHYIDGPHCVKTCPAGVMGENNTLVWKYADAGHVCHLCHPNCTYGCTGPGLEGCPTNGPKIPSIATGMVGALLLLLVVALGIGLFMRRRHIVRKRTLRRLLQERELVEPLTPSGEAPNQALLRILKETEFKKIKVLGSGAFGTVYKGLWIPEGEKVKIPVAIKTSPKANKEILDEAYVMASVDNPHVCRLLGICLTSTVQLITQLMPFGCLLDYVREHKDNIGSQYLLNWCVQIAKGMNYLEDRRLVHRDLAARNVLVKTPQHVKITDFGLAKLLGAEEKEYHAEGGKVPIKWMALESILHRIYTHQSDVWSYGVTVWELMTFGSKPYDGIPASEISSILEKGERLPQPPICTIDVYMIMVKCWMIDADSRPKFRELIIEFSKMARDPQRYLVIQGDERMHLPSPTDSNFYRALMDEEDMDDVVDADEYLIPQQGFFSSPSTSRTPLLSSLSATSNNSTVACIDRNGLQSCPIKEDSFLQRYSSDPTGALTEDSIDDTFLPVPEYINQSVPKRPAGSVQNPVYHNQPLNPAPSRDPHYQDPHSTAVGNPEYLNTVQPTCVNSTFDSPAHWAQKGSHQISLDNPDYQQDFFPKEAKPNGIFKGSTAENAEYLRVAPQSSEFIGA

| SMILES | pIC50 (EGFR (d746-750)) | pIC50 [1] | pIC50 (EGFR L858R) |
| --- | --- | --- | --- |
| C[C@H](Oc1cc(-c2cnn(C)c2)cc2ncnc(Nc3ccc4ncccc4c3F)c12)[C@@H](C)O (single isomer, unassigned) [Example 132, (2R,3S)-3-((4-((5-fluoroquinolin-6-yl)amino)-7-(1-methyl-1H-pyrazol-4-yl)quinazolin-5-yl)oxy)butan-2-ol or (2S,3R)-3-((4-((5-fluoroquinolin-6-yl)amino)-7-(1-methyl-1H-pyrazol-4-yl)quinazolin-5-yl)oxy)butan-2-ol] | > 8.00 | ≥ 8.00 | > 8.00 |
| C[C@H](Oc1cc(-c2cnn(C)c2)cc2ncnc(Nc3ccc4ncccc4c3F)c12)C(=O)N(C)C (single isomer, unassigned) [Example 137, (S)-2-((4-((5-fluoroquinolin-6-yl)amino)-7-(1-methyl-1H-pyrazol-4-yl)quinazolin-5-yl)oxy)-N,N-dimethylpropanamide or (R)-2-((4-((5-fluoroquinolin-6-yl)amino)-7-(1-methyl-1H-pyrazol-4-yl)quinazolin-5-yl)oxy)-N,N-dimethylpropanamide] | > 8.00 | ≥ 8.00 | > 8.00 |
| C[C@H](Oc1cc(-c2cnn(C)c2)cc2ncnc(Nc3ccc4ncccc4c3F)c12)C(=O)N1CCOCC1 (single isomer, unassigned) [Example 139, (S)-2-((4-((5-fluoroquinolin-6-yl)amino)-7-(1-methyl-1H-pyrazol-4-yl)quinazolin-5-yl)oxy)-1-morpholinopropan-1-one or (R)-2-((4-((5-fluoroquinolin-6-yl)amino)-7-(1-methyl-1H-pyrazol-4-yl)quinazolin-5-yl)oxy)-1-morpholinopropan-1-one] | > 8.00 | ≥ 8.00 | > 8.00 |
| CN(C)[C@@H]1CC[C@H]1Oc1cc(-c2cnn(C)c2)cc2ncnc(Nc3ccc4ncccc4c3F)c12 (single isomer, unassigned) [Example 141, 5-((1R,2R)-2-(dimethylamino)cyclobutoxy)-N-(5-fluoroquinolin-6-yl)-7-(1-methyl-1H-pyrazol-4-yl)quinazolin-4-amine or 5-((1S,2S)-2-(dimethylamino)cyclobutoxy)-N-(5-fluoroquinolin-6-yl)-7-(1-methyl-1H-pyrazol-4-yl)quinazolin-4-amine] | 7.30 to 8.00 | < 7.30 | 7.30 to 8.00 |
| CN1CC[C@H](Oc2cc(-c3cnn(C)c3)cc3ncnc(Nc4ccc5ncccc5c4F)c23)[C@@H](F)C1 (single isomer, unassigned) [Example 144, 5-(((3S,4S)-3-fluoro-1-methylpiperidin-4-yl)oxy)-N-(5-fluoroquinolin-6-yl)-7-(1-methyl-1H-pyrazol-4-yl)quinazolin-4-amine or 5-(((3R,4R)-3-fluoro-1-methylpiperidin-4-yl)oxy)-N-(5-fluoroquinolin-6-yl)-7-(1-methyl-1H-pyrazol-4-yl)quinazolin-4-amine] | > 8.00 | 7.30 to 8.00 | > 8.00 |
| C[C@H](Oc1cc(-c2cnn(C)c2)cc2ncnc(Nc3ccc4ncccc4c3F)c12)[C@@H]1CCCN1C (single isomer, unassigned) [Example 145] | 7.30 to 8.00 | < 7.30 | 7.30 to 8.00 |
| C[C@H](Oc1cc(-c2cnn(C)c2)cc2ncnc(Nc3ccc4ncccc4c3F)c12)[C@@H]1CCCN1C (single isomer, unassigned) [Example 146] | > 8.00 | ≥ 8.00 | > 8.00 |
| C[C@H](Oc1cc(-c2cnn(C)c2)cc2ncnc(Nc3ccc4ncccc4c3F)c12)[C@@H]1CCCN1C (single isomer, unassigned) [Example 147] | > 8.00 | ≥ 8.00 | > 8.00 |
| C[C@H](Oc1cc(-c2cnn(C)c2)cc2ncnc(Nc3ccc4ncccc4c3F)c12)[C@@H]1CCCN1C (single isomer, unassigned) [Example 148] | 7.30 to 8.00 | < 7.30 | 7.30 to 8.00 |
